The text below walks through data of patent US20100105694A1, “SUBSTITUTED PYRAZINONE DERIVATIVES FOR USE AS A MEDICINE” (priority 2006, published 2010).

The target of one experiment is T1, 5HT-Transporter (Homo sapiens, UniProt P31645).
T1 construct: Human platelet membranes (Oceanix Biosciences Corporation, Hanover, Md., USA) were thawed; tissue Oceanix Biosciences Corporation; host or cells: human platelet membranes
The experiment is described as follows: Binding experiment for the 5HT-transporter ([3H]paroxetine, human platelet membranes). The settings on record: [3H]paroxetine 0.5 nM, read-out: h-5HTT pIC50 (converted).

The target in experiment [1] is T2, human adrenergic-α2A receptor (Homo sapiens, UniProt P08913).
T2 construct: expressed in transfected cells; host or cells: CHO cells, stably transfected; membranes
T2 sequence (P08913 1-465): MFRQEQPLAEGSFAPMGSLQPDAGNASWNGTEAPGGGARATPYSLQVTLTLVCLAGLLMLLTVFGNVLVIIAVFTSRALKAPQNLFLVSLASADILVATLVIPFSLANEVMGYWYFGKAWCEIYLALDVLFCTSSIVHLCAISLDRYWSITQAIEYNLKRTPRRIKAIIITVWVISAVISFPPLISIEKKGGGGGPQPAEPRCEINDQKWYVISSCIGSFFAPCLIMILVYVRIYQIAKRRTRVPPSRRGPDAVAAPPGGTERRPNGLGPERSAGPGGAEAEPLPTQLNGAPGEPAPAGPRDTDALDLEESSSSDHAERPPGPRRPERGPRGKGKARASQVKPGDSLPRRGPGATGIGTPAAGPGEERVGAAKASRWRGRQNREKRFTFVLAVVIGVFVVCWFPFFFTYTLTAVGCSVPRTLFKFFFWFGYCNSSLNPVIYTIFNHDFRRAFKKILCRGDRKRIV
The experiment is described as follows: Radioligand binding experiment for hα2A receptor ([3H]raulwolscine, CHO cell membranes). As to conditions: [3H]raulwolscine 1 nM, membranes of CHO cells transfected with human α2A receptor; read-out: h-α2A pIC50 (converted).

Experiment [2] has as its target T3, human adrenergic-α2C receptor (Homo sapiens, UniProt P18825).
T3 construct: expressed in transfected cells; host or cells: CHO cells, stably transfected; membranes
T3 sequence (P18825 1-462): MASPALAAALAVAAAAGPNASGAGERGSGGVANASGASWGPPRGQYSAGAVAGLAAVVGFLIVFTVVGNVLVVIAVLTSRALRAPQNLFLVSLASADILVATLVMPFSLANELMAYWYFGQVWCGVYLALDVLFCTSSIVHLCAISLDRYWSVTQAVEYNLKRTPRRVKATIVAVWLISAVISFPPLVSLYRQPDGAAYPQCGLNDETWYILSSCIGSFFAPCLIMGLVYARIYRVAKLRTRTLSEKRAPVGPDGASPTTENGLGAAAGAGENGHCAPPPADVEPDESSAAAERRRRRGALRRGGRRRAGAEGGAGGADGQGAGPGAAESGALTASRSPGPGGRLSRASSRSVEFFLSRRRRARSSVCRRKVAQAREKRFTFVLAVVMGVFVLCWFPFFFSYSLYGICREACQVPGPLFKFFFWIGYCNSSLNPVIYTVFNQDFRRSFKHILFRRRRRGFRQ
The experiment is described as follows: Radioligand binding experiment for α2C-adrenoceptor ([3H]raulwolscine, CHO cell membranes). As to conditions: [3H]raulwolscine 1 nM, membranes of CHO cells transfected with human α2C receptor; read-out: h-α2C pIC50 (converted).

Some results are limits rather than exact numbers.

T1 sequence (P31645 whole entry): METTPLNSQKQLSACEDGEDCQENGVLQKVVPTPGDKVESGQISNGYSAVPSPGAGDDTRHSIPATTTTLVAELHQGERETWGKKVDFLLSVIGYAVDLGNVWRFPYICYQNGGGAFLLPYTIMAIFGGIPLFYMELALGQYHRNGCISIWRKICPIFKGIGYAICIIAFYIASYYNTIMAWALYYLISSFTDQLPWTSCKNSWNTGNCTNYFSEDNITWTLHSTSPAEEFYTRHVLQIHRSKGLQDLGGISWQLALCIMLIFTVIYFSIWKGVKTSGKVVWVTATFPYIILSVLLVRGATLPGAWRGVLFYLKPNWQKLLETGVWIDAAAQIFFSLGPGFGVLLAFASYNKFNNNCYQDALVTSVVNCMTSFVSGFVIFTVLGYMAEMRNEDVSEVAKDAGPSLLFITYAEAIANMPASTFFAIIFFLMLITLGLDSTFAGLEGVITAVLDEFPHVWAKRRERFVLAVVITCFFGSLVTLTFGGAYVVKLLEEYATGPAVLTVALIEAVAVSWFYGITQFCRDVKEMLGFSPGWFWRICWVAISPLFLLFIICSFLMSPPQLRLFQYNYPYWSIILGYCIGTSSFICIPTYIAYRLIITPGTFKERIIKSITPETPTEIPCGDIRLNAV

With `CN(C)CCCn1ccnc(NC2CCN(Cc3ccc(OCc4ccccc4)cc3)CC2)c1=O` [Compound 11-2], the IC50 at 5HT-Transporter was greater than 10 µM; in experiment [1], 794 nM; in experiment [2], 794 nM.
In the case of `CC(C)(C)OC(=O)NCCCn1ccnc(NC2CCN(Cc3ccc(OCc4ccccc4)cc3)CC2)c1=O` [Compound 11-3], the values for the IC50 (on 5HT-Transporter; in experiment [1]; in experiment [2]) were greater than 10 µM, 794 nM and 631 nM, respectively.
On the same counts, the results for `O=c1c(NC2CCN(Cc3ccc(OCc4ccccc4)cc3)CC2)nccn1CCN1CCCCC1` [Compound 11-4] are greater than 10 µM, 1580 nM and 794 nM.
Consider `O=C1c2ccccc2C(=O)N1CCCn1ccnc(NC2CCN(Cc3ccc(OCc4ccccc4)cc3)CC2)c1=O` [Compound 11-5], for which the IC50 on 5HT-Transporter was 3.16 µM; in experiment [1], 794 nM; in experiment [2], 251 nM.
On the same counts, the results for `O=c1c(NC2CCN(Cc3ccc(OCc4ccccc4)cc3)CC2)nccn1Cc1cccc(Br)c1` [Compound 11-6] are 1.58 µM, 631 nM and 794 nM.
On the same counts, the results for `O=c1c(NC2CCN(Cc3ccc(OCc4ccccc4)cc3)CC2)nccn1Cc1ccc(Br)cc1` [Compound 11-7] are 1.58 µM, 631 nM and 631 nM.
